{
  "source": "patent US9725449B2",
  "about": "“Tricyclic compounds as anticancer agents” (BRISTOL-MYERS SQUIBB COMPANY, priority 2015, dated 2017)",
  "data": [
    {"target": "BRD4 (Homo sapiens, UniProt O60885)", "assay": "Time resolved fluorescence resonance energy transfer (TR-FRET) binding assay, bromodomain BRD4", "conditions": "one of the FRET assays described; read-out: FRET BRD4 IC50", "units": {"IC50": "nM"}, "values": [
      {"smiles": "[2H]C([2H])([2H])c1nnn(C)c1-c1cnc2c3c(OC)ncc(S(C)(=O)=O)c3n(C(c3ccc(F)cc3)C3CCC(F)(F)CC3)c2c1", "note": "(stereo in doubt) [Example 96, 8-[(R)-(4,4-Difluorocyclohexyl)(4-fluorophenyl)methyl]-10-methanesulfonyl-13-methoxy-5-[4-(^2H3)methyl-1-methyl-1H-1,2,3-triazol-5-yl]-3,8,12-triazatricyclo[7.4.0.0^2,^7]trideca-1(13),2(7),3,5,9,11-hexaene]", "IC50": "< 1500"},
      {"smiles": "[2H]C([2H])([2H])c1nnn(C)c1-c1cnc2c3ccc(N4C[C@@H](C)O[C@@H](C)C4)nc3n([C@H](c3ccccc3F)C3CCOCC3)c2c1", "note": "[Example 237, 11-[(2R,6S)-2,6-Dimethylmorpholin-4-yl]-8-[(S)-(2-fluorophenyl)(oxan-4-yl)methyl]-5-[4-(^2H3)methyl-1-methyl-1H-1,2,3-triazol-5-yl]-3,8,10-triazatricyclo[7.4.0.0^2,^7]trideca-1(13),2(7),3,5,9,11-hexaene]", "IC50": "< 1"},
      {"smiles": "COc1ncc(Cl)c2c1c1ncc(-c3c(C)nnn3C)cc1n2[C@H](c1ccccc1)C1CCOCC1", "note": "[Example 39, 10-Chloro-5-(dimethyl-1H-1,2,3-triazol-5-yl)-13-methoxy-8-[(S)-oxan-4-yl(phenyl)methyl]-3,8,11-triazatricyclo[7.4.0.0^2,^7]trideca-1(13),2(7),3,5,9,11-hexaene]", "IC50": "< 10"},
      {"smiles": "[2H]C([2H])([2H])c1nnn(C)c1-c1cnc2c3ccc(N4CC(N5CCS(=O)(=O)CC5)C4)nc3n([C@H](c3ccccc3)C3CCOCC3)c2c1", "note": "[Example 186, 4-(1-{5-[4-(^2H3)Methyl-1-methyl-1H-1,2,3-triazol-5-yl]-8-[(S)-oxan-4-yl(phenyl)methyl]-3,8,10-triazatricyclo[7.4.0.0^2,^7]trideca-1(9),2(7),3,5,10,12-hexaen-11-yl}azetidin-3-yl)-1λ^6,4-thiomorpholine-1,1-dione]", "IC50": "< 10"},
      {"smiles": "[2H]C([2H])([2H])c1nnn(C)c1-c1cnc2c3c(NCC(F)F)ncc(S(C)(=O)=O)c3n([C@H](c3ccccc3)C3CCOCC3)c2c1", "note": "[Example 117, N-(2,2-Difluoroethyl)-10-methanesulfonyl-5-[4-(^2H3)methyl-1-methyl-1H-1,2,3-triazol-5-yl]-8-[(S)-oxan-4-yl(phenyl)methyl]-3,8,12-triazatricyclo[7.4.0.0^2,^7]trideca-1(13),2(7),3,5,9,11-hexaen-13-amine]", "IC50": "< 10"},
      {"smiles": "[2H]C([2H])([2H])c1nnn(C)c1-c1cnc2c3ccc(N4C[C@@H](C)N[C@@H](C)C4)nc3n([C@H](c3ccccc3)C3CCOCC3)c2c1", "note": "[Example 252, 11-[(3R,5S)-3,5-Dimethylpiperazin-1-yl]-5-[4-(^2H3)methyl-1-methyl-1H-1,2,3-triazol-5-yl]-8-[(S)-oxan-4-yl(phenyl)methyl]-3,8,10-triazatricyclo[7.4.0.0^2,^7]trideca-1(13),2(7),3,5,9,11-hexaene]", "IC50": "< 1"},
      {"smiles": "Cc1nnn(C)c1-c1cnc2c3ccc(-c4c(C)nnn4C)nc3n([C@H](c3ccccc3F)C3CCOCC3)c2c1", "note": "[Example 227, 5,11-Bis(dimethyl-1H-1,2,3-triazol-5-yl)-8-[(S)-(2-fluorophenyl)(oxan-4-yl)methyl]-3,8,10-triazatricyclo[7.4.0.0^2,^7]trideca-1(13),2(7),3,5,9,11-hexaene]", "IC50": "< 1"},
      {"smiles": "[2H]C([2H])([2H])c1nnn(C)c1-c1cnc2c3c(OCC4CC4)ncc(S(C)(=O)=O)c3n([C@H](c3ccccc3)C3CCOCC3)c2c1", "note": "[Example 59, 13-(Cyclopropylmethoxy)-10-methanesulfonyl-5-[4-(^2H3)methyl-1-methyl-1H-1,2,3-triazol-5-yl]-8-[(S)-oxan-4-yl(phenyl)methyl]-3,8,12-triazatricyclo[7.4.0.0^2,^7]trideca-1(13),2(7),3,5,9,11-hexaene]", "IC50": "< 1"},
      {"smiles": "COc1ccc2c3ncc(-c4c(C)nnn4C)cc3n([C@H](c3ccccc3)C3CCOCC3)c2n1", "note": "[Example 12, 5-(Dimethyl-1H-1,2,3-triazol-5-yl)-11-methoxy-8-[(S)-oxan-4-yl(phenyl)methyl]-3,8,10-triazatricyclo[7.4.0.0^2,^7]trideca-1(13),2(7),3,5,9,11-hexaene]", "IC50": "< 10"},
      {"smiles": "Cc1nnn(C)c1-c1cnc2c3ccc(-c4ccnn4C)nc3n([C@H](c3ccccc3F)C3CCOCC3)c2c1", "note": "[Example 229, 5-(Dimethyl-1H-1,2,3-triazol-5-yl)-8-[(S)-(2-fluorophenyl)(oxan-4-yl)methyl]-11-(1-methyl-1H-pyrazol-5-yl)-3,8,10-triazatricyclo[7.4.0.0^2,^7]trideca-1(13),2(7),3,5,9,11-hexaene]", "IC50": "< 10"},
      {"smiles": "Cc1nnn(C)c1-c1cnc2c3ccnc(N4CCN(C)CC4)c3n([C@H](c3ccccc3)C3CCOCC3)c2c1", "note": "[Example 8, 5-(Dimethyl-1H-1,2,3-triazol-5-yl)-10-(4-methylpiperazin-1-yl)-8-[(S)-oxan-4-yl(phenyl)methyl]-3,8,11-triazatricyclo[7.4.0.0^2,^7]trideca-1(13),2(7),3,5,9,11-hexaene]", "IC50": "< 10"},
      {"smiles": "Cc1nnn(C)c1-c1cnc2c3cncc(S(C)(=O)=O)c3n(C(c3ccccc3)C3CCC(F)(F)CC3)c2c1", "note": "(centres unmarked) [Example 290, 8-[(4,4-Difluorocyclohexyl)(phenyl)methyl]-5-(dimethyl-1H-1,2,3-triazol-5-yl)-10-methanesulfonyl-3,8,12-triazatricyclo[7.4.0.0^2,^7]trideca-1(13),2(7),3,5,9,11-hexaene]", "IC50": "< 1"},
      {"smiles": "[2H]C([2H])([2H])c1nnn(C)c1-c1cnc2c3c(N(C)CC)ncc(S(C)(=O)=O)c3n([C@H](c3ccccc3)C3CCOCC3)c2c1", "note": "[Example 115, N-Ethyl-10-methanesulfonyl-N-methyl-5-[4-(^2H3)methyl-1-methyl-1H-1,2,3-triazol-5-yl]-8-[(S)-oxan-4-yl(phenyl)methyl]-3,8,12-triazatricyclo[7.4.0.0^2,^7]trideca-1(13),2(7),3,5,9,11-hexaen-13-amine]", "IC50": "< 1"},
      {"smiles": "[2H]C([2H])([2H])c1nnn(C)c1-c1cnc2c3c(OC)ncc(S(C)(=O)=O)c3n(C(c3c(F)cc(F)cc3F)C3CCOCC3)c2c1", "note": "(single isomer, unassigned) [Example 83, 10-Methanesulfonyl-13-methoxy-5-[4-(^2H3)methyl-1-methyl-1H-1,2,3-triazol-5-yl]-8-[oxan-4-yl(2,4,6-trifluorophenyl)methyl]-3,8,12-triazatricyclo[7.4.0.0^2,^7]trideca-1(13),2(7),3,5,9,11-hexaene]", "IC50": "< 1"},
      {"smiles": "[2H]C([2H])([2H])N1CCN(c2ncc3c4ncc(-c5c(C)nnn5C)cc4n([C@H](c4ccccc4)C4CCOCC4)c3n2)CC1", "note": "[Example 156, 5-(Dimethyl-1H-1,2,3-triazol-5-yl)-11-[4-(^2H3)methylpiperazin-1-yl]-8-[(S)-oxan-4-yl(phenyl)methyl]-3,8,10,12-tetraazatricyclo[7.4.0.0^2,^7]trideca-1(9),2(7),3,5,10,12-hexaene]", "IC50": "< 10"},
      {"smiles": "[2H]C([2H])([2H])c1nnn(C)c1-c1cnc2c3c(OC(C)C)ncc(S(C)(=O)=O)c3n(C(c3ncccc3F)C3CCOCC3)c2c1", "note": "(centres unmarked) [Example 70, 8-[(3-Fluoropyridin-2-yl)(oxan-4-yl)methyl]-10-methanesulfonyl-5-[4-(^2H3)methyl-1-methyl-1H-1,2,3-triazol-5-yl]-13-(propan-2-yloxy)-3,8,12-triazatricyclo[7.4.0.0^2,^7]trideca-1(13),2(7),3,5,9,11-hexaene]", "IC50": "< 1"},
      {"smiles": "COc1ncc(S(C)(=O)=O)c2c1c1ncc(-c3c(C)nnn3C)cc1n2C(c1ccccc1)C1CCC(F)(F)CC1", "note": "(single isomer, unassigned) [Example 90, 8-[(4,4-Difluorocyclohexyl)(phenyl)methyl]-5-(dimethyl-1H-1,2,3-triazol-5-yl)-10-methanesulfonyl-13-methoxy-3,8,12-triazatricyclo[7.4.0.0^2,^7]trideca-1(13),2(7),3,5,9,11-hexaene]", "IC50": "< 10"},
      {"smiles": "[2H]C([2H])([2H])Oc1ncc(S(C)(=O)=O)c2c1c1ncc(-c3c(C)noc3C([2H])([2H])[2H])cc1n2[C@H](c1ccc(F)cc1)C1CCOCC1", "note": "[Example 55, 8-[(S)-(4-Fluorophenyl)(oxan-4-yl)methyl]-10-methanesulfonyl-13-(^2H3)methoxy-5-[5-(^2H3)methyl-3-methyl-1,2-oxazol-4-yl]-3,8,12-triazatricyclo[7.4.0.0^2,^7]trideca-1(13),2(7),3,5,9,11-hexaene]", "IC50": "< 1"},
      {"smiles": "[2H]C([2H])([2H])c1nnn(C)c1-c1cnc2c3c(C(C)=O)cncc3n([C@H](c3ccccc3)C3CCOCC3)c2c1", "note": "[Example 297, 1-{5-[4-(^2H3)Methyl-1-methyl-1H-1,2,3-triazol-5-yl]-8-[(S)-oxan-4-yl(phenyl)methyl]-3,8,11-triazatricyclo[7.4.0.0^2,^7]trideca-1(9),2(7),3,5,10,12-hexaen-13-yl}ethan-1-one]", "IC50": "< 10"},
      {"smiles": "[2H]C([2H])([2H])c1nnn(C)c1-c1cnc2c3c(Cl)cnc(Cl)c3n([C@H](c3ccccc3)C3CCOCC3)c2c1", "note": "[Example 296, 10,13-Dichloro-5-[4-(^2H3)methyl-1-methyl-1H-1,2,3-triazol-5-yl]-8-[(S)-oxan-4-yl(phenyl)methyl]-3,8,11-triazatricyclo[7.4.0.0^2,^7]trideca-1(9),2(7),3,5,10,12-hexaene]", "IC50": "< 1"},
      {"smiles": "[2H]C([2H])([2H])c1nnn(C)c1-c1cnc2c3ccc(NC)nc3n([C@H](c3ccccc3F)C3CCOCC3)c2c1", "note": "[Example 239, 8-[(S)-(2-Fluorophenyl)(oxan-4-yl)methyl]-N-methyl-5-[4-(^2H3)methyl-1-methyl-1H-1,2,3-triazol-5-yl]-3,8,10-triazatricyclo[7.4.0.0^2,^7]trideca-1(13),2(7),3,5,9,11-hexaen-11-amine]", "IC50": "< 10"},
      {"smiles": "COc1ncc(S(C)(=O)=O)c2c1c1ncc(-c3c(C)noc3C)cc1n2[C@H](c1ccccc1F)C1CCOCC1", "note": "[Example 48, 5-(Dimethyl-1,2-oxazol-4-yl)-8-[(S)-(2-fluorophenyl)(oxan-4-yl)methyl]-10-methanesulfonyl-13-methoxy-3,8,12-triazatricyclo[7.4.0.0^2,^7]trideca-1(13),2(7),3,5,9,11-hexaene]", "IC50": "< 1"},
      {"smiles": "CCCC(c1ncccc1F)n1c2cc(-c3c(C)nnn3C)ncc2c2ncc(C(C)(C)O)cc21", "note": "(single isomer, unassigned) [Example 371]", "IC50": "< 10"}
    ]}
  ]
}
